Data as given in ChEMBL document CHEMBL1201862, “PubChem BioAssay data set” (2004).
The source made the active and inactive calls.

What was measured:
Assay type in all cases: functional
[1] = biological target: T1, Sentrin-specific protease 6 (Homo sapiens, UniProt Q9GZR1);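 note: Luminescence-based dose-response confirmatory assay of SENP6 inhibition, following up an ultra-high-throughput screen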
T1 sequence (Q9GZR1 whole entry): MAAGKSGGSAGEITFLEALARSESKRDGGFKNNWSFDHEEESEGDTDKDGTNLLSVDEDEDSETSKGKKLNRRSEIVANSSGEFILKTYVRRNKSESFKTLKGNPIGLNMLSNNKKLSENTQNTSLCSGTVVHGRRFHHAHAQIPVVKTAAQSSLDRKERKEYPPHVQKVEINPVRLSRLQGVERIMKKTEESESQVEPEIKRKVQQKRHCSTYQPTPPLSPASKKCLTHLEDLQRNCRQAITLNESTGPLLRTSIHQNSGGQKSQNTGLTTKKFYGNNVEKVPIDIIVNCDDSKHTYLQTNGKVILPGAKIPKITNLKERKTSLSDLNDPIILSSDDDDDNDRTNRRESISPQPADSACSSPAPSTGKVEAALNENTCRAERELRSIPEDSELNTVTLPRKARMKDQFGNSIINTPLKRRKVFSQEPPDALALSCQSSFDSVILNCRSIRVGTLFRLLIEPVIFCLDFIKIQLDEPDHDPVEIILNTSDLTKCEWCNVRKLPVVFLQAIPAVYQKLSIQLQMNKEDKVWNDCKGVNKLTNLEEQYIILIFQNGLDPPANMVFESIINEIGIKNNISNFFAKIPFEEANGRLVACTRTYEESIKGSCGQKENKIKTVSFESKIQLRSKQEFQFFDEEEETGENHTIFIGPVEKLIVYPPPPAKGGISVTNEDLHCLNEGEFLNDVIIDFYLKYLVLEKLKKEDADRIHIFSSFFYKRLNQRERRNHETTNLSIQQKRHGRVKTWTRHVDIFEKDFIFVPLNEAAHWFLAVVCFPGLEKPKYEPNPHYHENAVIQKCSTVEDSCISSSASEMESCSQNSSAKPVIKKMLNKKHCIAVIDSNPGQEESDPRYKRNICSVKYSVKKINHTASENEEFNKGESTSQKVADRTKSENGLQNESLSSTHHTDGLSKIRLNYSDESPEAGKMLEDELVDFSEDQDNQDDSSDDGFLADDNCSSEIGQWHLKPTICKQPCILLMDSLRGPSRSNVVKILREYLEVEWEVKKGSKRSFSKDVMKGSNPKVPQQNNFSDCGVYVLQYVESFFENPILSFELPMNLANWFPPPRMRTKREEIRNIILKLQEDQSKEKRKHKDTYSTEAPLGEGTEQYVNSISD

[2] = biological target: T2, Replicative DNA helicase DnaB (Mycobacterium tuberculosis, UniProt P9WMR3); assay: DnaB intein splicing inhibitors, dose response, biochemical, cell-free fluorescence (AID 449749)
T2 sequence (P9WMR3 whole entry): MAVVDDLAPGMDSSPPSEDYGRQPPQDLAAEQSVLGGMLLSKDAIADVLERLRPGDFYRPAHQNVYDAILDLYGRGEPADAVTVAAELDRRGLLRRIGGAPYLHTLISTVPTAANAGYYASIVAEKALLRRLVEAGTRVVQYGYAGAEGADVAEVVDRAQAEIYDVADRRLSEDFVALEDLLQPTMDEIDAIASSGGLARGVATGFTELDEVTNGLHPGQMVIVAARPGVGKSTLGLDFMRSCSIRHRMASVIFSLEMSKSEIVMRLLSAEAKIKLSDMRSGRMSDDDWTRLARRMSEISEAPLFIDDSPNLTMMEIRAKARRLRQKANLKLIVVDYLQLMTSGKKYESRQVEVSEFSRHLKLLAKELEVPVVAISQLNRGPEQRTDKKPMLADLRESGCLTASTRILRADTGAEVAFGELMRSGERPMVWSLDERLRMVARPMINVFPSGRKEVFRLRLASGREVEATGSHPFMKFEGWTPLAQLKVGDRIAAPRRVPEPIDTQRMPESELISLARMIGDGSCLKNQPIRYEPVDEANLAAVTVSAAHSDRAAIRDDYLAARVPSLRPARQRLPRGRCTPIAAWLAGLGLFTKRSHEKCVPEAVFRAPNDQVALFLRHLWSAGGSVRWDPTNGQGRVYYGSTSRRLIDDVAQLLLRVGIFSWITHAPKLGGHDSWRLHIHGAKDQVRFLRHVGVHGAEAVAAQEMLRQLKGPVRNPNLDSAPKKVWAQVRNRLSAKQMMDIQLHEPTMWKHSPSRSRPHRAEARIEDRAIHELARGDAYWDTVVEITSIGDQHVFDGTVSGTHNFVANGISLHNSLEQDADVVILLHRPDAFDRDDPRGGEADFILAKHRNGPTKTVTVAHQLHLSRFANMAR

[3] = biological target: Proto-oncogene tyrosine-protein kinase receptor Ret (Homo sapiens, UniProt P07949);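 note: measured within a kinome-wide profiling panel, RET as the panel member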
Sequence of Proto-oncogene tyrosine-protein kinase receptor Ret (P07949 whole entry): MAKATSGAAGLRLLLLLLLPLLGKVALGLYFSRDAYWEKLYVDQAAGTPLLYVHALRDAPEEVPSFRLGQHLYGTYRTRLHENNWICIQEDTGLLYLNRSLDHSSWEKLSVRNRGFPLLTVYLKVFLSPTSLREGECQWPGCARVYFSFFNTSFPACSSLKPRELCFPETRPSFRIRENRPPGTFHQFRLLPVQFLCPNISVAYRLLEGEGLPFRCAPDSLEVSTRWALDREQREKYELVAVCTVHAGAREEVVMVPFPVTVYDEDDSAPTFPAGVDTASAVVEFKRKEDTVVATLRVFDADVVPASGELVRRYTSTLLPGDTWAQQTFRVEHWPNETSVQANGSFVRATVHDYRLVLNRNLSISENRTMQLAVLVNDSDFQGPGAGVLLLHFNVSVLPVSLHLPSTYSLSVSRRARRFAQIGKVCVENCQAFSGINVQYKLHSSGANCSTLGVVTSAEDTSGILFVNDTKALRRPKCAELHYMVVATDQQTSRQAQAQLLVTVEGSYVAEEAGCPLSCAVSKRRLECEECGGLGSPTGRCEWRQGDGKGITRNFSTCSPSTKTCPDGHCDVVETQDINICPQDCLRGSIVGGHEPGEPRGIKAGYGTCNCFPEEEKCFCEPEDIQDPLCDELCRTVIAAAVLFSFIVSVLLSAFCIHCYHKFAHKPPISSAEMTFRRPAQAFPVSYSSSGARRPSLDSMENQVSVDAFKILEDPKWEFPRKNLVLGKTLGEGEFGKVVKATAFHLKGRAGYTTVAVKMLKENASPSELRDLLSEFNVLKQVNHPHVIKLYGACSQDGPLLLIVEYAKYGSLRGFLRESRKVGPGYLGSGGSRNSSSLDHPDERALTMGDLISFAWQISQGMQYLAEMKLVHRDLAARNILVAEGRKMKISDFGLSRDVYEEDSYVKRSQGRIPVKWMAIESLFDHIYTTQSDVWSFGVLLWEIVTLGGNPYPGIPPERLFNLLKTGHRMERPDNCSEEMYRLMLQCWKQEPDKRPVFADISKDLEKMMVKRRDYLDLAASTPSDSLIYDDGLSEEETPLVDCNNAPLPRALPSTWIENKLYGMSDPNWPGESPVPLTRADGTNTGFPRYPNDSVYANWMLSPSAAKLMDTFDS

[4] = biological target: T3, Aurora kinase A (Homo sapiens, UniProt O14965);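 note: value from the Navigating the Kinome kinase panel profiling, panel entry STK6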
T3 sequence (O14965 whole entry): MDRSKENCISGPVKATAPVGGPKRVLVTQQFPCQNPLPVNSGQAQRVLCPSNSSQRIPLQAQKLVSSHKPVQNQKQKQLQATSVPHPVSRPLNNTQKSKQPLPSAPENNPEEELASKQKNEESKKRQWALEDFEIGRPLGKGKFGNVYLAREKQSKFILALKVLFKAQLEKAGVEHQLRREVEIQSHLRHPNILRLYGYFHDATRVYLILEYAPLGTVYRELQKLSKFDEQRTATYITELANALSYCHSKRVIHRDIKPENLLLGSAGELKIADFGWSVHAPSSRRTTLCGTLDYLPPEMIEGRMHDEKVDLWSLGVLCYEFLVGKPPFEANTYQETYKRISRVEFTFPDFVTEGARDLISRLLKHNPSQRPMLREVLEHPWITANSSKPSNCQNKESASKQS

[5] = biological target: Tyrosine-protein kinase BTK (Homo sapiens, UniProt Q06187)
Sequence of Tyrosine-protein kinase BTK (Q06187 whole entry): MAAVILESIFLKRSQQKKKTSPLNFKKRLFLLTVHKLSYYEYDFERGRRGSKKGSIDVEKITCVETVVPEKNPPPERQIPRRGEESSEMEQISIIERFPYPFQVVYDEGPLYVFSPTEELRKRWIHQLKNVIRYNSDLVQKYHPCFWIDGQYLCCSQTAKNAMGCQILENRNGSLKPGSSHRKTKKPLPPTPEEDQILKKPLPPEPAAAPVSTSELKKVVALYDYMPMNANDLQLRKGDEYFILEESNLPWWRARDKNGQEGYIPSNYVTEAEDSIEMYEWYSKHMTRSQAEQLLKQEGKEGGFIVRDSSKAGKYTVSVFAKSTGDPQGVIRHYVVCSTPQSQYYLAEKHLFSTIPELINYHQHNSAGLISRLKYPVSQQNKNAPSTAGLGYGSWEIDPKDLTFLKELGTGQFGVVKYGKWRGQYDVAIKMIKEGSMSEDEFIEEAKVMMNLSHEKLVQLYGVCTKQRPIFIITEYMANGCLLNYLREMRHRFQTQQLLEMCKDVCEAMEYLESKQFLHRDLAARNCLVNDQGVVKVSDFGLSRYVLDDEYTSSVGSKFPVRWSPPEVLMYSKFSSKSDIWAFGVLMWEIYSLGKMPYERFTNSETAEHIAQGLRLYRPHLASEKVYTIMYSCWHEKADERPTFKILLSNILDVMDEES

[6] = biological target: Tyrosine-protein kinase receptor TYRO3 (Homo sapiens, UniProt Q06418);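 note: TYRO3 value obtained as one member of a kinome-wide profiling panel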
Sequence of Tyrosine-protein kinase receptor TYRO3 (Q06418 whole entry): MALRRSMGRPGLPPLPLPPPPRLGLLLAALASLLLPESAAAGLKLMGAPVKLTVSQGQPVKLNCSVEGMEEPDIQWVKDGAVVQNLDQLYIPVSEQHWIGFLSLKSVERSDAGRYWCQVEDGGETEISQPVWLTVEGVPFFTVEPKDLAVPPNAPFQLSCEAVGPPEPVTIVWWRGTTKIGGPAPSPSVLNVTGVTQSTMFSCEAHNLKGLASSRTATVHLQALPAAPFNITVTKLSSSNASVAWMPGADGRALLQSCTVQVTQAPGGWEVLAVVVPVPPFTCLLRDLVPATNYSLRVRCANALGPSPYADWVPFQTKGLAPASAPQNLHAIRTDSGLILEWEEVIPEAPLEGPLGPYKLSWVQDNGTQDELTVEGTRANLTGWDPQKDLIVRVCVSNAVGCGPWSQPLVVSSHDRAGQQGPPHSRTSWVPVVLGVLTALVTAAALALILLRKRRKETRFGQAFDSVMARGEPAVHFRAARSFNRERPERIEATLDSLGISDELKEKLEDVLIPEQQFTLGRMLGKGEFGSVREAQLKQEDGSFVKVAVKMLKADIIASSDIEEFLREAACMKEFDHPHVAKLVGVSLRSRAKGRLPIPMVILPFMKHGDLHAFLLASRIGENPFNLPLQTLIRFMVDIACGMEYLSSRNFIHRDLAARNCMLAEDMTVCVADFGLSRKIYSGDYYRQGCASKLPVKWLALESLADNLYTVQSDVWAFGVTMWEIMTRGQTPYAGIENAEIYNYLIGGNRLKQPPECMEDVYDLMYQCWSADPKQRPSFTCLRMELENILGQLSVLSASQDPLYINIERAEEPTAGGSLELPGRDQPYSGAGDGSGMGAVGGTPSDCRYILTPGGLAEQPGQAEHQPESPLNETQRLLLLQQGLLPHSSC

[7] = biological target: Mitogen-activated protein kinase 8 (Homo sapiens, UniProt P45983);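 note: value comes from one member of a kinome-wide kinase profiling panel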
Sequence of Mitogen-activated protein kinase 8 (P45983 whole entry): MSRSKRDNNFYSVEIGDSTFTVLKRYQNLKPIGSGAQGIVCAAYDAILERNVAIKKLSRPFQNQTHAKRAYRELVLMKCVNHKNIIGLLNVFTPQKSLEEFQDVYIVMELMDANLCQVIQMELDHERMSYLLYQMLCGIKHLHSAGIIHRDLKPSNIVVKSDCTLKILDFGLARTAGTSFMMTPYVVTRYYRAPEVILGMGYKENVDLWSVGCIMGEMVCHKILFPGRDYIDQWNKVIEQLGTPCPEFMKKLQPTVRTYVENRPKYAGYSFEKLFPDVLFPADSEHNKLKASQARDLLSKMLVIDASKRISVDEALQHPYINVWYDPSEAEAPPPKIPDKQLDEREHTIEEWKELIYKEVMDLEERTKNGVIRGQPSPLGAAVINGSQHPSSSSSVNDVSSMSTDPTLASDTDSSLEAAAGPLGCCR

[8] = biological target: Insulin-like growth factor 1 receptor (Homo sapiens, UniProt P08069); assay: Navigating the Kinome. Panel member name: IGF1R
Sequence of Insulin-like growth factor 1 receptor (P08069 31-736 limits assumed): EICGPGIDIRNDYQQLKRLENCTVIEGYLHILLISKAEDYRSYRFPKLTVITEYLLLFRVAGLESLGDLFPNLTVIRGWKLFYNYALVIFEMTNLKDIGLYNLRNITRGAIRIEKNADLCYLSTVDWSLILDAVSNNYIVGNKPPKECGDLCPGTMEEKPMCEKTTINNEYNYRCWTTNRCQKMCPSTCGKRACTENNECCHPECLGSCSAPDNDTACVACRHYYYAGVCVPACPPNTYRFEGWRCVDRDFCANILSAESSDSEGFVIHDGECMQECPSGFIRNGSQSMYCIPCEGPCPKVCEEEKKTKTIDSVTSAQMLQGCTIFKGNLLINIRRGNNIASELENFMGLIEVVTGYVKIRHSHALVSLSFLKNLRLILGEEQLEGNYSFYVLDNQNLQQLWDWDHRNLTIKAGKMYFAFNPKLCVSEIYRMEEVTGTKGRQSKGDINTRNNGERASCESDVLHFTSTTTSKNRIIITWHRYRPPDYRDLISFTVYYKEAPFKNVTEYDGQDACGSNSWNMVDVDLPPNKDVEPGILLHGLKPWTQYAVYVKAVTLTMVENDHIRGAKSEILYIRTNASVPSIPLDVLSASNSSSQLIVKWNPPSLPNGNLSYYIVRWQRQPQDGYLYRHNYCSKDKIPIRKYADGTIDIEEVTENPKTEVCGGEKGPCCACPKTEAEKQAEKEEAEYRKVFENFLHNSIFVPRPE
Sequence of Insulin-like growth factor 1 receptor (P08069 741-1367 limits assumed): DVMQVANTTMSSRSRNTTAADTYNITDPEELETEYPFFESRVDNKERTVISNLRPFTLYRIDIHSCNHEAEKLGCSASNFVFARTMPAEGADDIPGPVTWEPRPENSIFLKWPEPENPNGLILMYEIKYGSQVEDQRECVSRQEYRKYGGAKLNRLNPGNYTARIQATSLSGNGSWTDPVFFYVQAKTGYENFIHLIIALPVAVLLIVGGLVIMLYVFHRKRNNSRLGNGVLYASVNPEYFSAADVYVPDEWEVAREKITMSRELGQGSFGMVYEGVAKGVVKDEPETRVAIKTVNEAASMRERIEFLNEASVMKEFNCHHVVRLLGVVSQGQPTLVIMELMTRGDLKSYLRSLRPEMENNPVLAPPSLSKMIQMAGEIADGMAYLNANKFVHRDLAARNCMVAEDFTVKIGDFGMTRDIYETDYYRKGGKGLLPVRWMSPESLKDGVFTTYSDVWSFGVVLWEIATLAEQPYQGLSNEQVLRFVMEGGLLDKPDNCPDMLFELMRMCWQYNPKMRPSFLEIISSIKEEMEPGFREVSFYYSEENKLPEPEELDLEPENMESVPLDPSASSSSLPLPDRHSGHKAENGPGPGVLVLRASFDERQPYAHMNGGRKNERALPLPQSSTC

Compound	IC50 [1]	AC50 [2]	Ki [3]	Ki [4]	Ki [5]	Ki [6]	Ki [7]	Ki [8]
Cc1cc(C)c[n+](C2=C([N-]S(=O)(=O)c3cccs3)C(=O)c3ccccc3C2=O)c1	15100 nM (active)	–	–	–	–	–	–	–
CCCCCCCCCCC[N+](C)(C)CC/C=C1/c2ccccc2Sc2ccc(Cl)cc21	–	> 380000 nM (inactive)	–	–	–	–	–	–
CCn1c(-c2nonc2N)nc2cncc(C(=O)N3CCC(N)C3)c21 (stereo unspecified)	–	–	> 3160 nM (inactive)	> 1580 nM (inactive)	> 6310 nM (inactive)	> 3160 nM (inactive)	> 5010 nM (inactive)	> 2510 nM (inactive)
Cc1[nH]nc2ccc(-c3cncc(OCC(N)Cc4c[nH]c5ccccc45)c3)cc12 (stereo unspecified)	–	–	> 1260 nM (inactive)	> 1580 nM (inactive)	> 1260 nM (inactive)	> 2000 nM (inactive)	1580 nM (active)	> 2000 nM (inactive)
COC(=O)c1ccccc1NC1=C/C(=N\S(=O)(=O)c2cccs2)c2ccccc2C1=O	1860 nM (active)	> 380000 nM (inconclusive)	–	–	–	–	–	–
